The bioavailability is the share of a dose that reaches the circulation, judged against a reference dose that is usually intravenous.

Results on one compound are retold here after patent US20210262008A1, “METHOD OF PERSONALIZED TREATMENT FOR CARDIOMYOPATHY AND HEART FAILURE AND OTHER RELATED DISEASES BY MEASURING RENIN ACTIVITY, PRO-RENIN, PRO-RENIN RECEPTOR LEVELS IN BLOOD” (priority 2018, published 2021).

SMILES strings stand for the structures. Read-outs that look alike come from different tables or passages of the source.

For one series, the target named is T1, mouse renin (Mus musculus, UniProt P06281).
T1 construct: from tissue; host or cells: plasma (terminal blood, cardiocentesis) of female DCM (mCREB transgenic) mice on a C57BL/6 background
T1 sequence (P06281 72-402): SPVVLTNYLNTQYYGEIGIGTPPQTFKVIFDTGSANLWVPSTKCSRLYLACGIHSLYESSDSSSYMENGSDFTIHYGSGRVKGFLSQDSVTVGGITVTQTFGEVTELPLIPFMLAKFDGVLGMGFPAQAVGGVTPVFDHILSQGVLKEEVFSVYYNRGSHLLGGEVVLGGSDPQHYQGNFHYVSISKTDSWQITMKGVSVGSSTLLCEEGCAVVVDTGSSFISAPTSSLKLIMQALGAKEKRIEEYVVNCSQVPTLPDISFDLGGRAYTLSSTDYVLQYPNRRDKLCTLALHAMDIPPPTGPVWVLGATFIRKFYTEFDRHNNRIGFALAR
Briefly: Plasma renin activity assay (FRET substrate) in plasma of treated DCM mice. The note with it: female DCM mice, 100 mg/kg/day orally in drinking water from 50 days of age, measured at 90 days, vs DCM control. In kind it is in vivo. The protocol:
Plasma samples were aliquoted and stored at −80° C. until analysis.

The test system of series [1] is female mice with dilated cardiomyopathy (DCM). Briefly: Plasma Ang II, aldosterone and HF biomarkers by enzyme immunoassay in DCM mice at 90 days. In kind it is in vivo, mouse. The note with it: for plasma aldosterone levels: 100 mg/kg/day oral, 100 mg/kg/day. The source says: Mice: In the Examples 1-3 below, the mice used were all female littermates with or without dilated cardiomyopathy (DCM) on a C57BL/6 background. DCM is a major cause of HF, which is associated with pathological dilation of the heart ventricles and declines in heart contractile or systolic function. DCM mice express transgene dominant negative CREB transcription factor, specific to cardiomyocytes and develop a consistent progressive DCM and HF similar to humans. In female mice with DCM renal function remains within normal range up to the terminal HF stage, as measured by plasma BUN and creatinine. DCM mice (mCREBTg) are slightly hypotensive at 91 days of age compared to mCREB WT. mCREB mice were randomly assigned to experimental groups. Groups were denoted as WT (n=20), DCM (Control, n=28), and DCM+direct renin inhibitor treatment (+DRI, n=29). At 90-day censorship, dissected organs were weighed, and terminal blood was collected via cardiocentesis with EDTA-aprotinin syringes to prevent proteolysis of targeted proteins. The blood samples were centrifuged at 3000 rpm for 20 min at 4° C. Plasma samples were aliquoted and stored at −80° C. until analysis.
(§1) Dose calculations were based on an average consumption of 5 mL of water/day/mouse. […] The oral dose was chosen to closely mimic the human route of delivery, while not altering the blood pressure, associated with elevated plasma Ang II-aldosterone levels, given the low bioavailability of the drug in rodents. […] No issues with palatability or clinical dehydration were noted throughout the study as assessed by blinded husbandry and veterinary staff. […] The administration was started at 50 days of age to coincide with the previously identified timeline of increased renin activity and development of stage B HF in female DCM mice]. Aliskiren water was provided ad libitum throughout life. All untreated mice (WT and DCM+vehicle) received ad lib 3 ppm hyperchlorinated facility water via an automated watering system (Edstrom, Waterford, Wis., USA).
Enzyme Immunoassay: Plasma Ang II, aldosterone, atrial natriuretic peptide (N terminus-ANP), cyclic guanosine monophosphate (cGMP), neprilysin, and corin levels were measured by enzyme immunoassays according to the manufacturers' protocols (Phoenix Pharm. Inc., Burlingame, Calif., USA; Abcam Inc., Cambridge, Mass., USA; Enzo Life Sciences Inc., Farmingdale, N.Y., USA; Boster Biological Technology, Pleasanton, Calif., USA; USCN Life Science Inc., Houston, Tex., USA).

For series [2] the test system is unchanged. Briefly: Kaplan-Meier survival of female DCM mice. In kind it is in vivo, mouse. The source says: Mice: In the Examples 1-3 below, the mice used were all female littermates with or without dilated cardiomyopathy (DCM) on a C57BL/6 background. DCM is a major cause of HF, which is associated with pathological dilation of the heart ventricles and declines in heart contractile or systolic function. DCM mice express transgene dominant negative CREB transcription factor, specific to cardiomyocytes and develop a consistent progressive DCM and HF similar to humans. In female mice with DCM renal function remains within normal range up to the terminal HF stage, as measured by plasma BUN and creatinine. DCM mice (mCREBTg) are slightly hypotensive at 91 days of age compared to mCREB WT. mCREB mice were randomly assigned to experimental groups. […]
Dose calculations were based on an average consumption of 5 mL of water/day/mouse. […] No issues with palatability or clinical dehydration were noted throughout the study as assessed by blinded husbandry and veterinary staff. […]
Statistical Analysis: Statistical analyses were performed with GraphPad Prism 7.04 software (GraphPad Software, La Jolla, Calif., USA) using Student's t-test, one-way ANOVA, or two-way ANOVA with Tukey's multiple comparisons test (unless otherwise indicated) and Pearson's correlation. Survival was analyzed using Kaplan-Meier curves with the Mantel-Cox test. […]

Series [3] shares this test system. Description: Echocardiography of DCM mice at 90 days of age. In kind it is in vivo, mouse.
The test system of a further series is mice. The note with it: mouse, in vivo. On the procedure: as §1
For series [4] the following is noted: orally in rats; cited from earlier work.
The conditions of series [5]: in humans; cited from earlier work.
The subject of the next series is blood pressure. The note with it: 15-50 mg/kg/day via subcutaneous osmotic pumps, previous studies; cited from earlier work.

With `COCCCOc1cc(C[C@@H](C[C@H](N)[C@@H](O)C[C@H](C(=O)NCC(C)(C)C(N)=O)C(C)C)C(C)C)ccc1OC` [aliskiren, aliskiren hemifumarate], the “plasma renin activity (PRA)” value at mouse renin was “significantly reduced elevated PRA to normal levels”; at mouse renin (listed as DRI-aliskiren), “normalized pathological renin activity”. Besides, the “plasma Ang II levels” value in series [1] (female DCM mice, 100 mg/kg, DCM+DRI vs DCM+vehicle) is recorded as “no significant difference”. Moreover, the plasma aldosterone levels result is “not modulated by treatment” in series [1] (female DCM mice, vs DCM control) and “no significant difference” in series [1] (female DCM mice, vs DCM control, listed as DRI-aliskiren). Also, the ANP plasma levels entry in series [1] (vs DCM control) was “not affected”. In addition, the corin plasma levels entry in series [1] (vs DCM control) is on record as “not affected”. The “plasma cGMP levels” value in series [1] (vs DCM control) is reported as “non-significant trend toward lower levels”. Also, the plasma neprilysin levels result in series [1] (vs DCM control, P<0.001, listed as DRI) is “normalized plasma neprilysin levels”; in series [1] (vs DCM control, P<0.001, listed as DRI-aliskiren), “lowered neprilysin to WT levels”. This compound registered a median survival in series [2] (100 mg/kg/day oral, control 103 days, P<0.05) of 110 days. Besides, the “outlived the control mice (survival gain)” value in series [2] (median survival vs control) turned out to be 7%. This compound gave a heart rate in series [3] (anesthetized, control 419±10 bpm, P<0.01) of 469±14 bpm. Also, in series [3] (vs control DCM mice, P<0.01), the “cardiac output (CO mL/min)” value is “improved”. Also, the “systolic function, ejection fraction (EF %)” value in series [3] (vs control DCM mice, P<0.05) is recorded as “improved”. The “systolic function, fractional shortening (FS %)” value in series [3] (vs control DCM mice, P<0.05) is given as “improved”. The “palatability or clinical dehydration” value with mice is on record as “No issues”. In the series on mice (100 mg/kg/day), the “side effects / abnormal clinical observations” value is “no side effects or abnormal clinical observations”. The bioavailability is 2.6% in series [4] and “low” in series [5]. Moreover, the blood pressure result in the series with blood pressure is “no alteration in blood pressure”.
